Patent publication US11475578B2, “Method for analyzing behavior of cell, and use thereof” (TEIKYO UNIVERSITY, priority 2018, dated 2022)

Legend:
epidermal keratinocytes [1] = details: as previously reported [7]; cited from earlier work
epidermal keratinocytes [2] = experiment: Monitoring of culture conditions by automatic cell tracking of epidermal keratinocyte colonies; format: cell-based, human; details: 10 ng/ml EGF added to the medium
Description: Human epidermal keratinocytes originating in neonate (purchased from KURABO) were cultured under the conditions of 37° C. and 10% CO2 using the mouse 3T3 fibroblasts treated with mitomycin C as feeder cells (refer to the reference for details of the method).
The cultured epidermal keratinocytes were subcultured on a 35-mm glass bottom dish, and time-lapse imaging was performed under the conditions of 37° C. and 10% CO2 in which imaging was automatically performed every 5 minutes with Olympus FV10i.
The automatic tracking system was applied to monitoring of culture conditions of epidermal keratinocytes (obtained and cultured in the same manner as that of Example 1-1).
Behaviors of epidermal keratinocytes under different culture conditions were compared in the same manner as that of Example 1-2. The cell locomotions were compared. Those of the case where the medium was exchanged on the day 4 of the culture (feeding) and the case where the medium was not exchanged (no feeding) were compared. […] In the lower diagrams of FIG. 14, positions of the nuclei at each time point are shown with lines.
In the culture system of the inventors of the present invention, epidermal keratinocytes show a spiral migration pattern in colonies. As clearly seen from FIG. 15, the trajectory lines in 2D images (upper side) and 3D images (lower side) twisted. […]

Substance: epidermal growth factor [EGF, epidermal growth factor (EGF) (Up state, #01-107) added to the culture medium]
- migration of epidermal keratinocytes (epidermal keratinocytes [1]): induces migration of epidermal keratinocytes to the outside
- migration speed (epidermal keratinocytes [2]): did not change
- migration pattern (epidermal keratinocytes [2]; without EGF, spiral migration pattern in colonies): changed
